Holding throughout (assay): NCI tumour cell line growth inhibition, 48 h
For test [1], the system named is ACHN.
For test [2], the system named is COLO 205.
In test [3] the test system is HCC 2998.
Test [4] deals with HL-60.
Test [5] deals with HOP-62.
Test [6] deals with HT-29.
Test [7] deals with IGROV-1.
Test [8] relates to NCI-H226.
The subject of test [9] is OVCAR-4.
The subject of test [10] is OVCAR-5.
The test system of test [11] is SF-268.
In test [12] the test system is SF-295.
Test [13] relates to SK-MEL-28.
Test [14] has as its system SK-MEL-2.
Test [15] deals with SN12C.
Test [16] has as its system TK-10.
Test [17] has as its system U-251.
Test [18] deals with UACC-257.
Test [19] deals with DMS-273.
The subject of test [20] is M19-MEL.

Several values for one entry are separate records, joined by “and”; a condition that tells them apart may be missing. Equal values may be shown once.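 Grown in 96-well plates, cells were treated for 48 hours with each compound at five concentrations. Insufficient inhibition: endpoint recorded as highest concentration tested. GI50 marks 50% less growth.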 Activity calls are given as the source filed them. Rule as the data show it: active = GI50 up to about 1.1 µM and inactive = higher. Where only a bound is given, the exact number is not on record here.

As for `CC(NC(=O)C(NC(=O)CNC(=O)OC(C)(C)C)C(C)C)C(=O)Oc1c(Cl)c(Cl)c(Cl)c(Cl)c1Cl` (centres undefined), the GI50 is 21.8 µM (inactive) in test [1]; 17 µM (inactive) in test [2]; 19.6 µM (inactive) in test [3]; 55.2 µM (inactive) in test [4]; 18.4 µM (inactive) in [5]; 26.4 µM (inactive) in test [6]. Besides, the GI50 in test [7] was 20.3 µM (inactive); in [8] it was 19.8 µM (inactive); in [9], 18.8 µM (inactive); in test [10] it was 14.7 µM (inactive); in test [11], 23 µM (inactive); in [12] it was 14.5 µM (inactive). The GI50 in test [13] was 26.6 µM (inactive); in test [14], 14.3 µM (inactive); in test [15] it was 19.2 µM (inactive); in test [16], 26.8 µM (inactive); in test [17] it was 21.1 µM (inactive); in test [18], 15.9 µM (inactive).
For the compound `CC1=CC2=C(C=O)C(=O)[C@](C)(O)[C@@H](O)C2=CO1`, the GI50 was 28.1 µM (inactive) in [2]; 28.9 µM (inactive) in test [19]; 19.1 µM (inactive) in test [3]; 24.3 µM (inactive) in test [5]; 37.7 µM (inactive) in [6]; 32.1 µM (inactive) in test [7]. Further, the GI50 in test [20] was 22.4 µM (inactive); in [8], 25.8 µM (inactive); in [9], 39.1 µM (inactive); in test [10] it was > 50.8 µM (inactive); in [11], 24.9 µM (inactive); in test [12], 35.7 µM (inactive). For the same compound, the GI50 in test [13] was 25.2 µM (inactive); in test [14], 24.2 µM (inactive); in test [15] it was 28.6 µM (inactive); in test [17] it was 25.2 µM (inactive); in test [18], 33.2 µM (inactive).
On to `COC(=O)/C(=C\c1ccco1)P(=O)(OC)OC`, for which the GI50 was 29.4 µM (inactive) in [1]; > 100 µM (inactive) in test [2]; > 100 µM (inactive) in test [3]; 25.4 µM (inactive) in test [5]; 25.9 µM (inactive) in test [6]; > 100 µM (inactive) in [7]. The GI50 in test [8] was 58.3 µM (inactive); in test [9] it was 17.8 µM (inactive); in test [10] it was 16.2 µM (inactive); in [11], 97.3 µM (inactive); in test [12] it was 20 µM (inactive); in [13], 52.8 µM (inactive). In addition, the GI50 in test [14] was 30.9 µM (inactive); in test [15], 39.9 µM (inactive); in test [16] it was > 100 µM (inactive); in test [17] it was 41 µM (inactive); in test [18] it was 65.8 µM (inactive).
Regarding `CC/C(CC(=O)CCC(=O)Nc1ccc(C)c(C)c1)=N\NC(=O)c1cc2ccccc2cc1O`, the GI50 is 24.9 µM (inactive) in test [1]; 37 µM (inactive) in test [2]; 18.4 µM (inactive) in test [3]; 1.92 µM (inactive) in [4]; 26 µM (inactive) in [5]; 38.5 µM (inactive) in test [6]. Further, the GI50 in [7] was 19 µM (inactive); in test [20], 28.8 µM (inactive); in test [8], 13.4 µM (inactive); in test [9], 18.4 µM (inactive); in [10], 31 µM (inactive); in test [11] it was 22.1 µM (inactive). In addition, the GI50 is 37.2 µM (inactive) in test [12]; 20.7 µM (inactive) in test [13]; 31 µM (inactive) in test [14]; 28.3 µM (inactive) in [15]; 28.8 µM (inactive) in [17]; 45.2 µM (inactive) in test [18].
Turning to `COc1ccc(NC(=O)/C(=C/c2ccc(N(CCC#N)CCC#N)cc2)NC(=O)c2cc([N+](=O)[O-])ccc2Cl)cc1`, the GI50 was 10.1 µM (inactive) in test [1]; 59.8 µM (inactive) in [2]; 34.4 µM (inactive) in test [19]; 45.8 µM (inactive) in test [3]; 33.2 µM (inactive) in test [5]; 65.9 µM (inactive) in [7]. Also, the GI50 in test [20] is 56.4 µM (inactive); in test [8] it was > 100 µM (inactive); in test [9], > 100 µM (inactive); in [10] it was > 100 µM (inactive); in test [11], 27.2 µM (inactive); in test [12], 19.6 µM (inactive). Moreover, the GI50 in [13] was 53.5 µM (inactive); in test [14] it was 56.1 µM (inactive); in [15] it was > 100 µM (inactive); in test [16], 66.1 µM (inactive); in test [17], > 100 µM (inactive).
Turning to `CN(C)C(=S)/N=C1\SC(=N\c2ccccc2)/C(=N/c2ccccc2)N1c1ccc([N+](=O)[O-])cc1`, the GI50 in test [2], in [3], in test [4], in [5], in test [6] and in test [7] was > 100 µM (inactive) in each case. In addition, the GI50 in [8], in [10], in [12], in test [13], in test [14] and in test [15] was > 100 µM (inactive) in each case. Further, in [17], the GI50 was > 100 µM (inactive).
For `CN(C)C(=S)/N=c1\ss/c(=N\C(=S)N(C)C)n1C1CCCCC1`, the GI50 in [1] was > 100 µM (inactive); in [2], 30.8 µM (inactive); in test [3] it was > 100 µM (inactive); in [4] it was 69 µM (inactive); in test [5] it was > 100 µM (inactive); in test [6], 0.458 µM (active). The GI50 in test [7] was > 100 µM (inactive); in test [20], 0.524 µM (active); in test [8], > 100 µM (inactive); in test [9] it was 15.5 µM (inactive); in [10], > 100 µM (inactive); in [11], 44.9 µM (inactive). Further, the GI50 in test [12] is > 100 µM (inactive); in test [13], > 100 µM (inactive); in [14], > 100 µM (inactive); in [15], > 100 µM (inactive); in [16], > 100 µM (inactive); in [17], 27.4 µM (inactive). In addition, in [18], the GI50 was > 100 µM (inactive).
In the case of `CC1(C)O[C@H](C(=O)O)[C@@H](C(=O)O)O1`, the GI50 in test [1], in [2], in [3], in [5], in test [6] and in test [7] was > 100 µM (inactive) in each case. Moreover, the GI50 in test [8], in test [9], in [10], in test [11], in test [12] and in [13] was > 100 µM (inactive) throughout. Besides, the GI50 in test [14], in [15], in test [16], in test [17] and in test [18] was > 100 µM (inactive) throughout.
In the case of `Cn1c2c(c3ccccc31)CCN(CCCN1CCN(c3ccccc3)CC1)C2=O`, the GI50 in test [1] is 21.6 µM (inactive); in [2] it was 17.6 µM (inactive); in [19], 21.5 µM (inactive); in test [4], 13.5 µM (inactive); in test [6], 13.8 µM (inactive); in test [7], 20.8 µM (inactive). Further, the GI50 in test [20] is 19.5 µM (inactive); in test [11], 25.7 µM (inactive); in test [12], 23.1 µM (inactive); in test [13], 18.1 µM (inactive); in test [15] it was 20.6 µM (inactive); in [16] it was 16.9 µM (inactive). In addition, the GI50 in test [17] was 16.6 µM (inactive).
In the case of `CC#CC#C/C=C1\C=CC2(OC=CC2OC(C)=O)O1` (centres undefined), the GI50 was 10.4 µM (inactive) in test [1]; 15 µM (inactive) and 16.4 µM (inactive) in test [2]; 20.1 µM (inactive) in [19]; 22 µM (inactive) and 28 µM (inactive) in [3]; 20.2 µM (inactive) and 10.4 µM (inactive) in test [4]; > 100 µM (inactive) in [5]. The GI50 in test [6] is 16.1 µM (inactive) and 22.4 µM (inactive); in test [7] it was > 42.9 µM (inactive) and 42 µM (inactive); in [11], 23.7 µM (inactive) and 19.4 µM (inactive); in test [12], 47.8 µM (inactive) and 34.3 µM (inactive); in [15], 15.7 µM (inactive) and 16.5 µM (inactive); in test [16] it was 34 µM (inactive) and 28.1 µM (inactive). Besides, the GI50 in test [17] is 19.5 µM (inactive) and 18.5 µM (inactive).
Consider `O=C1C=C2SC3C[C@@]24CC1(O)[N+]1=c2c4c(c(O)c4c2=C(C=N4)CC1)N3`, for which the GI50 is 0.176 µM (active) in test [2]; 1.42 µM (inactive) in [19]; 0.217 µM (active) in test [4]; 1.82 µM (inactive) in test [5]; 0.299 µM (active) in test [6]; 1.57 µM (inactive) in [7]. In addition, the GI50 is 0.285 µM (active) in test [20]; 1.78 µM (inactive) in test [8]; 1.26 µM (inactive) in test [9]; 2.33 µM (inactive) in [10]; 1.01 µM (active) in [11]; 1.58 µM (inactive) in [12]. The GI50 was 1.64 µM (inactive) in test [13]; 1.44 µM (inactive) in test [14]; 1.22 µM (inactive) in test [15]; 1.75 µM (inactive) in test [17]; 1.16 µM (inactive) in [18].
For `COc1ccc(-c2cc(O)c3cc(C)cnc3n2)cc1`, the GI50 is 7.06 µM (inactive) in test [1]; 3.22 µM (inactive) in [2]; 14.5 µM (inactive) in test [3]; 6.56 µM (inactive) in test [5]; 2.21 µM (inactive) in [6]; 4.12 µM (inactive) in test [7]. For the same compound, the GI50 in [8] was 13 µM (inactive); in test [9], 33.9 µM (inactive); in test [10] it was 93.8 µM (inactive); in test [11], 6.81 µM (inactive); in test [13], 28.6 µM (inactive); in test [14], 3.5 µM (inactive). The GI50 in test [15] was 5.13 µM (inactive); in test [16], 2.86 µM (inactive); in test [18] it was 5.64 µM (inactive).

These data come from ChEMBL document CHEMBL1201862, “PubChem BioAssay data set” (2004).
